# Patent US10106540B2, “HDAC6 inhibitors and their uses” (Universität Regensburg, priority 2014, dated 2018)
# Assays:
# BV-173 cells [1] = assay: Western blot analysis in BV-173 cells; format: cell-based, human; conditions: for acetylation of histone H3: BV-173, 1 μM MARB1, 2 μM MARB2 or 2 mM VPA
# Protocol: BV-173 cells (BCR-ABL positive leukemic cells) were used as control cells left (Ctl) or with 1 μM MARB1, 2 μM MARB2 or 2 mM VPA treated for 24 h. These concentrations were chosen to achieve equipotent effects on cells which was in preliminary tests (data not shown). Shown are acetylated tubulin-α, α-tubulin, acetylated histone H3, WT1, survivin and β-actin. The total amount of α-tubulin and β-actin were used as loading control. Mr, relative molecular weight in kilodaltons. The degradation of WT1 in patients treated with VPA cells bases on a loss of WT1 mRNA and the increased degradation of WT1 protein by induction of the E2 ubiquitin conjugase UbcH8.
# (§1) Flow cytometric analysis of the induction of (A) apoptotic DNA fragmentation and (B) Cell cycle analysis of BV 173 cells. The cells were kept as control cells (Ctl), treated with 1 μM or 2 μM MARB1 MARB2 and 0.2 or 0.5 μM imatinib for 48 h. The data was received by two independent experiments. The individual compounds show only slight effects in the used concentrations; whereas their combination can effectively kill leukemic cells. (C) Western blot analysis on data from the BCR-ABL, acetylated tubulin and α-sliced PARP1; the total amount of tubulin-α serves as a loading control. BV-173 cells were treated for 24 h with 1 μM, or 2 μM MARB1 or MARB2.
# (§2) Human leukemia cell lines BV 173 and K562 with BCR-ABL mutation (Leibniz Institute DSMZ—German Collection of Microorganisms and Cell Cultures, DSMZ Accession Nos: ACC-20 and ACC-10).
# (§3) The assay is carried out as described in Buchwald et al. 2010 and Buchwald et al. 2013. Briefly, cells were collected and lysed in NET-N buffer (150 mM NaCl, 1 mM EDTA, 50 mM Tris-HCl (pH 7.8), 0.5% Nonidet P-40 (NP-40), 1 mM phenylmethylsulfonyl fluoride, 0.5 mg/ml leupeptin and 0.5 mg/ml pepstatin) followed by mild sonification on ice. Protein lysate ([…]) was boiled in Laemmli buffer and separated on SDS-polyacrylamide gel electrophoresis for western blotting with specific antibodies. All lysates were assessed by Bradford assay for protein concentrations.
# HEL leukemic cells = assay: Western blot analysis in HEL leukemic cells (JAK2 V617F); format: cell-based, human; conditions: for concentration with about the same potency in hyperacetylation of tubulin-α: 24 h, Western blot
# Protocol: Human leukemia cell line HEL with JAK2 V617F mutation (DSMZ Accession No: ACC-11).
# as §3
# HCT-116 cells = assay: Western blot analysis in HCT-116 colon cancer cells; format: cell-based, human; conditions: HCT-116 cells, 24 h
# Protocol: FIG. 5. Various cancer cells were treated for 24 h as shown and tested by Western blot analysis. […] Human colon cancer cell lines RKO (ATCC Accession No: CRL-2577) and HCT-116 (DSMZ Accession No: ACC-581). Western Blot Analysis a […] Protein lysate ([…]) was boiled in Laemmli buffer and separated on SDS-polyacrylamide gel electrophoresis for western blotting with specific antibodies. All lysates were assessed by Bradford assay for protein concentrations.
# MAXF 401 = assay: In vitro activity against solid tumor cell lines (FACS analysis method a); format: cell-based; conditions: Homo sapiens, MAXF401, Breast
# Protocol: (§4) Human breast cancer cell lines MAXF 401 and MAXF MCF-7 (Oncotest GmbH, Freiburg, Germany)
# (§5) The assay is carried out as described in Pietschmann et al., 2012 and Brandl et al. 2012. Briefly, 10^5 cells were fixed in 1 ml 70% EtOH with 0.05% Tween-20 overnight at 4° C. The following day, cells were washed with 3 ml 38 mM sodium citrate, pH 7.4, and incubated for 20 min at 37° C. in 0.5 ml 38 mM sodium citrate, pH 7.4, supplemented with 50 μg/ml propidium iodide and 10 μg/ml RNase-A. DNA contents of the cells were measured by fluorescence-activated cell sorter (FACS). This method allows detection of the apoptotic subG1-fraction, which has a DNA content below 2n due to apoptotic cleavage of DNA. Equally, the cell cycle profile can be assessed with this method.
# (§6) The novel HDAC6 inhibitors were tested in a panel of tumor cell lines for cytostatic/toxic activities (see Table 2).
# MAXF MCF-7 = assay: as above; format: cell-based; conditions: Homo sapiens, MCF7, Breast
# Protocol: as §4, §5, §6
# PRXF DU-145 = assay: as above; format: cell-based; conditions: Homo sapiens, Prostate
# Protocol: (§7) Human prostate cancer cell lines PRXF DU-145, PRXF LNCaP, PRXF PC-3M (Oncotest GmbH, Freiburg, Germany)
# as §5, §6
# PRXF LNCaP = assay: as above; format: cell-based; conditions: Homo sapiens, Prostate
# Protocol: as §7, §5, §6
# PRXF PC-3M = assay: as above; format: cell-based; conditions: Homo sapiens, Prostate
# Protocol: as §7, §5, §6
# UXF 1138 = assay: as above; format: cell-based; conditions: Homo sapiens, Uterus
# Protocol: Human uterus cancer cell line UXF 1138 (Oncotest GmbH, Freiburg, Germany)
# as §5, §6
# [2] = test system: 42 solid tumor cell lines; assay: In vitro activity against solid tumor cell lines, mean of all lines; format: cell-based; conditions: average IC50 value from all 42 measurements
# BV-173 cells [3] = assay: Flow cytometric analysis of BV-173 cells, combination with imatinib; format: cell-based, human; conditions: BV-173, 1 μM MARB1 or 2 μM MARB2 combined with 0.2 or 0.5 μM imatinib, 48 h
# Protocol: as §1, §2
# The assay is carried out as described in Pietschmann et al., 2012 and Brandl et al. 2012. Briefly, 10^5 cells were fixed in 1 ml 70% EtOH with 0.05% Tween-20 overnight at 4° C. The following day, cells were washed with 3 ml 38 mM sodium citrate, pH 7.4, and incubated for 20 min at 37° C. in 0.5 ml 38 mM sodium citrate, pH 7.4, supplemented with 50 μg/ml propidium iodide and 10 μg/ml RNase-A. DNA contents of the cells were measured by fluorescence-activated cell sorter (FACS). […] Equally, the cell cycle profile can be assessed with this method.
# RKO cells = assay: Western blot analysis in RKO colorectal cancer cells; format: cell-based, human
# Protocol: FIG. 5. Various cancer cells were treated for 24 h as shown and tested by Western blot analysis.
# (D) Inhibition of HDAC6 protects it from degradation by the addition of a pro-apoptotic agent (staurosporine, ST).
# The total amount of vinculin serves as a loading control; Proof of tubulin acetylation serves as proof of the treatment accuracy. The loss of the caspase-3 corresponds to the induction of apoptosis (programmed cell death).
# Human colon cancer cell lines RKO (ATCC Accession No: CRL-2577) and HCT-116 (DSMZ Accession No: ACC-581).
# as §3
# [4] = BV-173, 1 μM MARB1, 2 μM MARB2, 24 h
compound,measurement,setting,value
"CCCC(CCC)C(=O)O [VPA, reference compound]",acetylation of histone H3,BV-173 cells [1]; 24 h,induces hyperacetylation of histone H3
"CN1CCc2c(c3ccccc3n2Cc2ccc(C(=O)NO)cc2)C1 [tubastatin A, reference compound]",concentration with about the same potency in hyperacetylation of tubulin-α,HEL leukemic cells,~5 µM
"Cc1[nH]c2ccccc2c1CCNCc1ccc(/C=C/C(=O)NO)cc1 [LBH589, reference compound]",acetylation of tubulin-α,HEL leukemic cells; compared to other inhibitors,decreased acetylation of tubulin-α
same,tubulin acetylation and degradation,HCT-116 cells,degradation of tubulin
"CN1CC(=O)N2Cc3c(c4ccccc4n3Cc3ccc(C(=O)NO)cc3)C(C2)C1=O (stereo not drawn) [MARB2, N-Hydroxy-4-((5-methyl-3,6-dioxo-4,5,6,7-tetrahydro-1H-2,7-methano[1,4]diazonino[6,7-b]indol-12(3H)-yl)methyl)benzamide]",IC50,MAXF 401,13.7 µM
same,IC50,MAXF MCF-7,7.69 µM
same,IC50,PRXF DU-145,10.3 µM
same,IC50,PRXF LNCaP,4.8 µM
same,IC50,PRXF PC-3M,20.8 µM
same,IC50,UXF 1138,5.49 µM
same,IC50,[2],16.4 µM
same,acetylation of tubulin-α,BV-173 cells [1]; [4],hyperacetylation of tubulin-α
same,expression of survivin,BV-173 cells [1]; [4],reduction of the expression of survivin
same,acetylation of histone H3,BV-173 cells [1]; 24 h,"Neither MARB1, nor MARB2 cause these alterations"
same,BCR-ABL expression on the protein level,"BV-173 cells [1]; BV-173, compound alone, 24 h",do not affect
same,BCR-ABL stabilization/degradation in combination with imatinib,"BV-173 cells [1]; BV-173, with imatinib, 24 h",significantly inhibit the unwanted stabilization of BCR-ABL
same,apoptotic and necrotic sub-G1 populations,BV-173 cells [3],significantly increases
same,concentration with about the same potency in hyperacetylation of tubulin-α,HEL leukemic cells,~2 µM
same,tubulin acetylation and degradation,HCT-116 cells,starts the hyperacetylation of tubulin in colon carcinoma cells (RKO and HCT-116 cells) without destroying it
same,hyperacetylation of tubulin,"RKO cells; 0.5 μM, 24 h",sufficient to induce hyperacetylation of tubulin
same,HDAC6 loss in staurosporin (ST)-treated cells,RKO cells; with staurosporine,protects ST-treated RKO cells
